Assay results as given in PubChem BioAssay (NCI).
Values joined by “and” are separate entries in the source; they are usually repeats but may differ in a detail not shown here. Equal values may be shown once.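 Values below derive from 48-hour exposures of cells grown in 96-well plates, with endpoints linearly interpolated between the two concentrations bracketing the appropriate inhibition level. At the GI50, growth is halved. TGI: total growth inhibition.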

How the values were obtained:
Experiment in all cases: growth of human tumour cells (NCI), 48 h
[1] = test system: HL-60(TB) leukemia
[2] = test system: SN12C renal
[3] = test system: NCI-H522 lung
[4] = test system: A549 NSCLC
[5] = test system: T-47D breast
[6] = test system: HOP-92 NSCLC
[7] = test system: NCI/ADR-RES ovarian
[8] = test system: EKVX NSCLC

SMILES	GI50 [1] [µM]	TGI [1] [µM]	GI50 [2] [µM]	TGI [2]	GI50 [3] [µM]	TGI [3] [µM]	GI50 [4] [µM]	TGI [4] [µM]	GI50 [5] [µM]	TGI [5] [µM]	GI50 [6] [µM]	TGI [6] [µM]	GI50 [7] [µM]	TGI [7] [µM]	GI50 [8] [µM]	TGI [8] [µM]
O=C(Nc1nc(-c2ccc(Cl)cc2)cs1)c1cc(O)c(O)c(O)c1	176	907	172	3780 µM	21.4	138	276	> 5000	125	671	115	1050	183	> 5000		
C=C1C(=O)O[C@H]2[C@H]1CC/C(COC(=O)c1cccnc1N)=C\CC[C@@]1(C)O[C@@H]21	0.262	0.749	2.01	10.9 µM	0.379	2	3.77	16.5	1.85	8.01	0.282	2.63	4.56	39.9	3.21	25.1
CN1CCC2(CC1)N=C(SCC(=O)Nc1cnc3ccccc3c1)C(c1ccc(Br)cc1)=N2	1.61	3.75	2.1	4.99 µM	1.91	3.82	5.01	17.4	2.24	7.35	1.22	3.35	2.27	5.76	2.51	10.2
C[N+](C)(C)CC(=O)N/N=C(\Cc1nc2ccc([N+](=O)[O-])cc2[nH]c1=O)C(=O)Nc1nc2ccc([N+](=O)[O-])cc2s1		> 100		> 100 µM		79.8		> 100		> 100		> 100		> 100		> 100
COc1cc2c(cc1OC)C(C(CCCCCC(CCC(C)C)C1NCCc3cc(OC)c(OC)cc31)CCC(C)C)NCC2 (stereo not drawn)	0.878	2.55	1.44	2.87 µM	1.72	3.24	0.98	2.44	1.44	3.06	0.808	2.46	1.44	2.94	1.49	3.2
CCCCC(=O)N(c1ccc(Nc2c3ccccc3nc3cc([N+](=O)[O-])ccc23)cc1)S(C)(=O)=O	12.9	> 69.7	4.86	> 100 µM	3.93	16	1.99	62.2	0.588	6.73	3.57	21.5	27	> 100		
COc1ccc(OC)c(Nc2nc3nonc3nc2Nc2cccc(Br)c2)c1	0.702	5.9	0.405	7.07 µM	0.254	0.775	0.713	> 100	0.285	2.17	0.266	3.55	0.541	13.9		
COC(=O)C1C(C(=O)O)C2(c3ccccc3)C(=O)C1(c1ccccc1)C(c1ccccc1)=C2c1ccccc1 (stereo not drawn)			18	38.9 µM	16	34.1	19.8	39.1			10.6	30.9	18.4	34	18.8	42.3
COc1ccc(Cn2cc(COc3cc(/C=C/C(=O)c4cc(OC)c(OC)c(OC)c4)ccc3OC)nn2)cc1	4.55	35.1	3.62	> 100 µM	1.69	4.18	3.09	47.5	3.41	> 100			3.49	> 100		
O=C(Oc1ccccc1)N(c1ccccc1)c1ccccc1	28.2	71.4	27.7	> 100 µM			26.2	> 100	24.9	> 100	19	66.9	21.8	72.2	18.7	> 100
Cc1ccc(N)cc1[As]=[As]c1cc(N)ccc1C (stereo not drawn)	2.01	5.8	1.4	2.88 µM	0.122	0.268	4.36	20			0.997	2.4	3.19	> 100		
CC[C@H](C)[C@@H]([C@@H](CC(=O)N1CCC[C@H]1[C@H](OC)[C@@H](C)C(=O)NCCc1ccccc1)OC)N(C)C(=O)C(NC(=O)[C@H](C(C)C)N(C)C)C(C)C (stereo partly drawn)				0.00499 µM and 0.00515 µM		0.000434		1.1		> 10				> 10		7.57
CCc1nc(C)cn1C(=O)OCc1nc2nc(Cl)nc(N3CCOCC3)c2[nH]1	0.451	3.15	1.35	2.74 µM	1.37	3.37	1.83	4.36			0.88	2.41	2.64	9.02	1.43	3.07
CCN(CC)CCNC(=O)c1cccc2c1-c1ccccc1C2=O			> 100	> 100 µM	> 100	> 100	> 100	> 100	> 100	> 100	> 100	> 100	> 100	> 100	> 100	> 100
Cc1ccc(C[As+](c2ccccc2)(c2ccccc2)c2ccccc2)cc1	0.286	1.48	1.25	12.1 µM	0.649	8.38	0.588	35.8	0.125	10.3	0.158	0.961	49.1	> 100		
COc1cc(C(=O)/C=C/c2cc(-c3ccc4c(c3)OCO4)n[nH]2)cc(OC)c1OC	2.17	6.49	2.26	6.28 µM	1.59	3.41	2.13	6.23	1.51	4.63			2.99	12.3		
